Key:
[1] = system: senescent cells (senescence-induced normal human fibroblasts HCA2); test: Viable cell count (trypan blue) of senescent cells treated with glutaminase inhibitor; type: cell-based
Procedure: RO3306 (SIGMA-ALDRICH) (final concentration: 9 μM) was added to normal human fibroblasts (HCA2), followed by culture at 37° C. and 5% CO2 for 16 hours. Next, culture was performed at 37° C. and 5% CO2 for 8 hours in a culture medium containing RO3306 (final concentration: 9 μM) and Nutlin-3a (SIGMA-ALDRICH) (final concentration: 10 μM), and then culture was performed at 37° C. and 5% CO2 for 48 hours in a culture medium containing Nutlin-3a (final concentration: 10 μM). Culture was performed at 37° C. and 5% CO2 for 9 days while replacing the medium with a medium containing BI2536 (SIGMA-ALDRICH) (final concentration: 100 nM) every 3 days. Thereafter, senescence induction was carried out by performing culture at 37° C. and 5% CO2 for 9 days while replacing the medium with a normal medium (FIG. 1A).
(§1) Senescent cells and normal cells were seeded in 6-cm culture dishes such that approximately 10,000 cells were in each dish.

[2] = system: S6K protein T389 phosphorylation (indicator of activation of mTOR); test: Western blotting of S6K protein T389 phosphorylation in senescent cells; type: cell-based, human
Procedure: Further, the molecular mechanism of SASP inhibition was analyzed. […] Cell extracts were prepared from the cultured cells using Laemmli-buffer (2% SDS, 10% glycerol, 5% 2-mercaptoethanol, 0.002% bromophenol blue, and 62.5 mM Tris HCl at pH 6.8). Cell extracts (20 to 50 μg) were separated by SDS-PAGE, and after transcription to PVDF membrane, Western blotting was performed using an antibody to the T389 phosphorylation site of the […] protein (CST), an antibody to the S6K protein (CST), and an antibody to the p16 protein (abcam), and detection was performed by ECL.

senescent cells [3] = test: Cell viability of BPTES-treated cells in weakly basic medium (trypan blue count); type: cell-based, human; details: BPTES 10 μM
Procedure: Next, the pH of the medium of BPTES-treated cells was made weakly basic (pH 8.0 or pH 8.5), and the cell viability was examined.
(§2) Senescent cells and normal cells were separately seeded in 6-cm culture dishes such that approximately 10,000 cells were in each dish. […] Thereafter, the cells were stained with trypan blue every 24 hours, and the number of viable cells was counted using a hemocytometer.

[4] = system: ApoE knockout mice on atherogenetic diet; test: Obesity-associated atherosclerosis in ApoE knockout mice (Sudan IV staining of aorta); type: in vivo; details: atherogenetic diet 8 weeks, BPTES 0.25 mg/20 g/200 μl i.p. 3 times a week in latter 4 weeks
Procedure: C57BL/6J ApoE knockout mice (8 weeks old) were maintained on an atherogenetic diet (D12108C, Research Diets Inc.) for 8 weeks. […] In addition, C57BL/6J wild-type male mice (8 weeks old) were maintained on a normal diet as controls. All aortas except the arterial arch were cleanly depleted of adventitial fat, incised, and fixed flat in 4% […] at 25° C. for 12 hours. The aorta was washed with 70% ethanol for 5 minutes, incubated in 0.5% Sudan IV (in 1:1 acetone/ethanol) for 5 minutes, and then washed 3 times with 80% ethanol for 1 minute. Plaque formed in the aorta was stained with Sudan IV, the Sudan IV-positive area was quantified with ImageJ, and the plaque number was counted under a microscope.

[5] = system: IL-6 and IL-8 mRNA expression; test: qPCR of SASP factors IL-6 and IL-8 mRNA in senescent cells; type: cell-based, human; details: BPTES 2.5 μM, 24 hours
Procedure: After reverse transcription from total RNA into cDNA using the SuperScript II cDNA synthesis kit (Invitrogen) was performed, qPCR analysis was performed using the Power SYBR Green PCR Master Mix (Applied Biosystems) so as to measure the IL-6 and IL-8 expression levels. Primers for detecting the IL-6 and IL-8 mRNA expression levels are shown below.

[6] = system: intracellular pH in senescent cells; test: Intracellular pH measurement; type: cell-based, human; parameters: dose or concentration left out as unconfirmed; details: BPTES final concentration, 24 hours; normal level about 7.4
Procedure: Next, senescent cells and normal cells were separately seeded in 6-cm well plates such that approximately 50,000 cells were in each plate. […] The medium was removed, culture was performed at 37° C. and 5% CO2 for 10 minutes in a HEPES solution containing […] (DOJINDO LABORATORIES) at a final concentration of 3 μM, and washing with the HEPES solution was performed three times. Thereafter, luminescence was measured with a plate reader. In order to determine the pH value, the amount of luminescence of cells treated with the HEPES solution (pH 6.0 to 7.6) containing nigericin at a final concentration of 10 μM was corrected.

[7] = system: normal cells (normal human fibroblasts HCA2); test: Viable cell count (trypan blue) of normal cells treated with glutaminase inhibitor; type: cell-based; details: BPTES final concentration 10 μM, 3 days
Procedure: as §1

[8] = system: p16 mRNA (marker of senescent cells); test: Removal of senescent cells in vivo: p16 mRNA by qPCR in organs of aged mice; details: 96-week-old C57BL6/N male mice, 12.5 mg/kg body weight once a week for 1 month
Procedure: Then, each mouse was dissected, RNA was extracted by homogenizing the heart, brain, kidney, and liver, and total RNA was prepared using the RNeasy mini kit (Qiagen) according to the attached protocol and reverse transcribed into cDNA using the ReverTra Ace qPCR RT kit (Takara). Using the obtained cDNA, the expression level of p16 mRNA, which is a marker of senescent cells, was analyzed by qPCR using Power SYBR Green PCR Master Mix (Applied Biosystems). The p16 mRNA expression level was corrected by the value of GAPDH. Primers for detecting the p16 mRNA expression level are shown below.

[9] = system: mice on choline-deficient L-amino acid-defined high-fat diet; test: Liver dysfunction associated with non-alcoholic steatohepatitis (choline-deficient L-amino acid-defined high-fat diet mice); type: in vivo; details: NASH diet 8 weeks, BPTES 0.25 mg/20 g/200 μl i.p. 3 times a week in latter 4 weeks
Procedure: Eight-week-old male mice (C57BL/6N) were maintained on a choline-deficient L-amino acid-defined high-fat diet (A06071302, Research Diets Inc.) for 8 weeks. […] The serum AST level and the hydroxyproline (OH-Pro) level in the liver were measured by the AST assay kit (Abcam) and the Hydroxyproline assay kit (Abcam), respectively. In addition, the expression levels of p16, KGA, and IL-6 were measured by qPCR. Primers for qPCR are shown below.

aged mice (76 weeks old) = test: Age-associated dysfunction of kidney, lung, heart and liver in aged mice; type: in vivo; details: BPTES 0.25 mg/20 g/200 μl intraperitoneally, 1 month
From the text: It is examined whether removal of senescent cells by inhibition of glutaminolysis could improve aging or age-associated organ dysfunction.
The kidney, lung, liver, and heart were embedded with an OCT compound, thereby preparing frozen sections. Thereafter, tissue staining with hematoxylin-eosin (H&E), tissue staining with a Masson trichrome (MT) reagent, a periodic acid Schiff (PAS) reagent (Fisher Scientific), or immunostaining with DAB (3,3′-diaminobenzidine tetrahydrochloride) (DAKO) using an anti-F4-80 antibody (CST) was performed. After staining, tissue sections were observed under a microscope.
Kidney glomerulosclerosis was evaluated for 40 glomeruli per individual based on PAS-positive intensity and range. In addition, the serum urea concentration and creatinine concentration were measured using the Urea Assay kit (Abcam) and the Creatinine Assay kit (Abcam), respectively.
The degree of lung fibrosis was assessed by MT staining. […] In addition, when the MT-stained area was quantified by a BZ-X analyzer (Keyence), the degree of fibrosis was improved in the lungs of BPTES-treated mice as compared with the lungs of control mice (FIG. 7B, top).
For the heart, MT staining of heart tissue sections was performed so as to assess the degree of fibrosis (FIG. 8A). In addition, the heart weight was weighed, and the cardiomyocyte size was measured with a BZ-X analyzer (Keyence). As for the heart, the degree of fibrosis in the heart of BPTES-treated mice was improved as compared with the control mice (FIG. 8B).
Liver tissue sections were immunostained with an anti-F4/80 antibody (FIG. 9A) so as to assess the degree of macrophage infiltration. The degree of macrophage infiltration in the liver of BPTES-treated mice was improved compared to control mice (FIG. 9B).

[10] = system: ammonia production in senescent cells; test: Intracellular ammonia quantification (ammonia assay kit); type: cell-based, human; details: BPTES final concentration 10 μM, 24 hours
From the text: Senescent cells and normal cells were separately seeded in 10-cm culture dishes such that approximately 50,000 cells were in each dish. […] Thereafter, the amount of ammonia in cells was quantified using the ammonia assay kit (abcam).

senescent cells [11] = test: Effect of mPTP inhibitors on cell death of BPTES-treated cells (trypan blue count); type: cell-based, human; details: BPTES 10 μM alone
Procedure: The previous reports have shown that lowering intracellular pH causes apoptosis-independent cell death through the opening of mitochondrial permeability transition pore (mPTP) by the BNIP3 protein. Therefore, the effects of mPTP inhibitors (DUB and CsA) on BPTES-treated cells were examined.
as §2

mice fed a high fat diet = test: Obesity-associated senescent cell accumulation, macrophage infiltration and hypertrophy of white adipose tissue (high-fat diet mice); type: in vivo; details: high-fat diet 8 weeks, BPTES 0.25 mg/20 g/200 μl i.p. 3 times a week in latter 4 weeks
Procedure: Eight-week-old male mice (C57BL/6N) were maintained on a high-fat diet (HFD32, CLEA Japan) or a normal diet for 8 weeks. […] Then, white adipose tissue was collected from mice, and the accumulation of senescent cells was examined by SA-β-gal staining, and macrophage infiltration was examined by immunostaining with the anti-F4/80 antibody. In situ staining with SA-β-gal and the determination of the abundance ratio of SA-β-gal positive cells were carried out as described in 2-5-2. The degree of macrophage infiltration was determined as described in 2-5-1. The adipocyte size was measured with a BZ-X analyzer (Keyence).

Q: `COC(=O)CCC(=O)C(=O)OC` [DM-KG] was tested. Which “rescue of senescent cell-selective cell death caused by BPTES” value ([1]; BPTES 10 μM plus transmembrane α-ketoglutaric acid) did it give?
A: Its value is “could hardly rescue”.

Q: And the “rescue of the BPTES inhibitory effect on S6K T389 phosphorylation” value ([2]; BPTES plus DM-KG)?
A: The value was “rescued”.

Q: For `O=C(Cc1ccccc1)Nc1nnc(CCSCCc2nnc(NC(=O)Cc3ccccc3)s2)s1` [BPTES, bis-2-(5-phenylacetamido-1,3,4-thiadiazol-2-yl)ethyl sulfide], which “impact on the survival of senescent cells” value ([1]; BPTES final concentration 2.5 μM) is on record?
A: The value was “little impact”.

Q: And the “cell death seen with BPTES treatment” value (senescent cells [3]; medium not weakly basic (pH 7.4))?
A: The value was “at least 90%”.

Q: What about the “cell death with BPTES under weakly basic pH conditions” value (senescent cells [3]; medium pH 8.0 or pH 8.5) of the same compound?
A: The value was “about 30%”.

Q: And the “aortic plaque area (Sudan IV-positive area)” value [4]?
A: The value was “reduces”.

Q: And the aortic plaque number [4]?
A: The aortic plaque number was “reduces”.

Q: And the “IL-6 mRNA expression” value [5]?
A: The value was “inhibits mRNA expression”.

Q: And the “IL-8 mRNA expression” value [5]?
A: The value was “inhibits mRNA expression”.

Q: What about the “intracellular pH in senescent cells” value [6] of the same compound?
A: The value was “about 6.0”.

Q: And the “number of cells (viable cells)” value [7]?
A: Its value is “increase in the number of cells”.

Q: And the “p16 mRNA expression in the brain” value [8]?
A: The value was “decreased”.

Q: What about the “p16 mRNA expression in the heart” value [8] of the same compound?
A: Its value is “decreased”.

Q: What about the “p16 mRNA expression in the kidney” value [8] of the same compound?
A: Its value is “decreased”.

Q: What about the “p16 mRNA expression in the liver” value [8] of the same compound?
A: The value was “decreased”.

Q: And the “IL-6 expression level in the liver (qPCR)” value [9]?
A: The value was “lowers”.

Q: And the “KGA expression level in the liver (qPCR)” value [9]?
A: Its value is “lowers”.

Q: And the “hydroxyproline (OH-Pro) level in the liver” value [9]?
A: The value was “lowers”.

Q: And the “p16 expression level in the liver (qPCR)” value [9]?
A: The value was “lowers”.

Q: What about the “serum AST level” value [9] of the same compound?
A: The value was “lowers”.

Q: And the cardiomyocyte size (aged mice (76 weeks old))?
A: Its cardiomyocyte size is “smaller than that of control mice”.

Q: What about the heart weight (aged mice (76 weeks old)) of the same compound?
A: Its heart weight is “lighter than that of young mice”.

Q: What about the serum creatinine concentration (aged mice (76 weeks old)) of the same compound?
A: The serum creatinine concentration was “reduced”.

Q: And the serum urea concentration (aged mice (76 weeks old))?
A: Its serum urea concentration is “reduced”.

Q: What about the “degree of fibrosis in the heart (MT staining)” value (aged mice (76 weeks old); vs control mice) of the same compound?
A: Its value is “improved”.

Q: And the “degree of glomerulosclerosis (PAS staining)” value (aged mice (76 weeks old); vs control mice)?
A: The value was “improved”.

Q: And the “degree of lung fibrosis (MT-stained area)” value (aged mice (76 weeks old); vs control mice)?
A: Its value is “improved”.

Q: What about the “degree of macrophage infiltration in the liver (anti-F4/80 immunostaining)” value (aged mice (76 weeks old); vs control mice) of the same compound?
A: Its value is “improved”.

Q: And the “ammonia production in senescent cells” value [10]?
A: The value was “suppresses the increased ammonia production in senescent cells to the same level as in normal cells”.

Q: What about the “phosphorylation of the S6K protein T389” value ([2]; BPTES 2.5 μM, 24 hours) of the same compound?
A: Its value is “inhibits phosphorylation”.

Q: And the “cell death seen with BPTES treatment” value (senescent cells [11])?
A: The value was “at least 90%”.

Q: What about the “accumulation of senescent cells associated with obesity (SA-β-gal, white adipose tissue)” value (mice fed a high fat diet) of the same compound?
A: Its value is “reduced”.

Q: And the “degree of macrophage infiltration in white adipose tissue (anti-F4/80)” value (mice fed a high fat diet)?
A: The value was “reduced”.

Q: And the “size of adipocytes associated with obesity” value (mice fed a high fat diet)?
A: The value was “reduced”.

Q: What about the “weight of white adipose tissue” value (mice fed a high fat diet) of the same compound?
A: The value was “reduced”.
